This note sets out measurements from ChEMBL document CHEMBL1201862, “PubChem BioAssay data set” (2004).

Active and inactive are the calls of the source.

The target in test [1] is T1, Corticotropin-releasing factor receptor 2/Corticotropin-releasing factor-binding protein (Homo sapiens, UniProt P24387+Q13324).
T1 sequence (Q13324 whole entry): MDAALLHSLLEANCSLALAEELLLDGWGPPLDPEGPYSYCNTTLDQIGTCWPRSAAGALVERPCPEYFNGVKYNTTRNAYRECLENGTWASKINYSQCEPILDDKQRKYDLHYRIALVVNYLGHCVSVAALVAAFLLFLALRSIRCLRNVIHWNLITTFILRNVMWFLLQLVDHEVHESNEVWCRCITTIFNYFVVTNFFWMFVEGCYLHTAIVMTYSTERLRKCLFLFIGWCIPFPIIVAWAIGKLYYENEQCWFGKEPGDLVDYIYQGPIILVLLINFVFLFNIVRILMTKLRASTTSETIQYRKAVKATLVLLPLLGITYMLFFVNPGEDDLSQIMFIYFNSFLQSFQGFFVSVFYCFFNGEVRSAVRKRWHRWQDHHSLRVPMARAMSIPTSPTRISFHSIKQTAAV
T1 sequence (P24387 whole entry): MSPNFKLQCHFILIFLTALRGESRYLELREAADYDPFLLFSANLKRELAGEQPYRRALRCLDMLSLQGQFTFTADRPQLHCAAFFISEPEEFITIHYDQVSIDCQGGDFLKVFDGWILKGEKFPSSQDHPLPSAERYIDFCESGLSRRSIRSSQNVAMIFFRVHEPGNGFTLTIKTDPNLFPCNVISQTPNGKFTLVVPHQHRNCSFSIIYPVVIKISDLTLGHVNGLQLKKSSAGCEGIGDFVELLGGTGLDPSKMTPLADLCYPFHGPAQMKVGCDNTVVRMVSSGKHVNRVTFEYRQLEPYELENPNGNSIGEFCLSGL
The test can be described thus: activators of CRF receptor 2 with binding protein – uHTS hits, confirmation (AID 602473). The class given is functional. Conditions: read-out: EC50_Mean.

The target of test [2] is Glyceraldehyde-3-phosphate dehydrogenase (Homo sapiens, UniProt P04406).
Glyceraldehyde-3-phosphate dehydrogenase, sequence (P04406 whole entry): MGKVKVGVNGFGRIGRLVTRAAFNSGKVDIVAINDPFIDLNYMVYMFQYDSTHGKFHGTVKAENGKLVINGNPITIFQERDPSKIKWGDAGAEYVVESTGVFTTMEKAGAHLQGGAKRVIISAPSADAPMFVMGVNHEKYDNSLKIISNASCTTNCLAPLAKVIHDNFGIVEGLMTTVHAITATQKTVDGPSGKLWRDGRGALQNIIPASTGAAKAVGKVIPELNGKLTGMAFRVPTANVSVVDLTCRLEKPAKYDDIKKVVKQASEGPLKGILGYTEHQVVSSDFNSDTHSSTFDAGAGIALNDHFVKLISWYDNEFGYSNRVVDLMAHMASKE
Test [3] addresses T2, Sentrin-specific protease 8 (Homo sapiens, UniProt Q96LD8).
T2 sequence (Q96LD8 whole entry): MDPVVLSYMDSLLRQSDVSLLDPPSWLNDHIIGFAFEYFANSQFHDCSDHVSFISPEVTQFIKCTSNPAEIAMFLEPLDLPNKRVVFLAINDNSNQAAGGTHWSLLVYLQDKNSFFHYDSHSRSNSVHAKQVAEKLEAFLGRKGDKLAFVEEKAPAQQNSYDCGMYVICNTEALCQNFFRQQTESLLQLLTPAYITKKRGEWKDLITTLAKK
The class given is functional.

The target in test [4] is T3, Sentrin-specific protease 6 (Homo sapiens, UniProt Q9GZR1).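 Further: Luminescence-based dose-response confirmatory assay of SENP6 inhibition, following up an ultra-high-throughput screen.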
T3 sequence (Q9GZR1 whole entry): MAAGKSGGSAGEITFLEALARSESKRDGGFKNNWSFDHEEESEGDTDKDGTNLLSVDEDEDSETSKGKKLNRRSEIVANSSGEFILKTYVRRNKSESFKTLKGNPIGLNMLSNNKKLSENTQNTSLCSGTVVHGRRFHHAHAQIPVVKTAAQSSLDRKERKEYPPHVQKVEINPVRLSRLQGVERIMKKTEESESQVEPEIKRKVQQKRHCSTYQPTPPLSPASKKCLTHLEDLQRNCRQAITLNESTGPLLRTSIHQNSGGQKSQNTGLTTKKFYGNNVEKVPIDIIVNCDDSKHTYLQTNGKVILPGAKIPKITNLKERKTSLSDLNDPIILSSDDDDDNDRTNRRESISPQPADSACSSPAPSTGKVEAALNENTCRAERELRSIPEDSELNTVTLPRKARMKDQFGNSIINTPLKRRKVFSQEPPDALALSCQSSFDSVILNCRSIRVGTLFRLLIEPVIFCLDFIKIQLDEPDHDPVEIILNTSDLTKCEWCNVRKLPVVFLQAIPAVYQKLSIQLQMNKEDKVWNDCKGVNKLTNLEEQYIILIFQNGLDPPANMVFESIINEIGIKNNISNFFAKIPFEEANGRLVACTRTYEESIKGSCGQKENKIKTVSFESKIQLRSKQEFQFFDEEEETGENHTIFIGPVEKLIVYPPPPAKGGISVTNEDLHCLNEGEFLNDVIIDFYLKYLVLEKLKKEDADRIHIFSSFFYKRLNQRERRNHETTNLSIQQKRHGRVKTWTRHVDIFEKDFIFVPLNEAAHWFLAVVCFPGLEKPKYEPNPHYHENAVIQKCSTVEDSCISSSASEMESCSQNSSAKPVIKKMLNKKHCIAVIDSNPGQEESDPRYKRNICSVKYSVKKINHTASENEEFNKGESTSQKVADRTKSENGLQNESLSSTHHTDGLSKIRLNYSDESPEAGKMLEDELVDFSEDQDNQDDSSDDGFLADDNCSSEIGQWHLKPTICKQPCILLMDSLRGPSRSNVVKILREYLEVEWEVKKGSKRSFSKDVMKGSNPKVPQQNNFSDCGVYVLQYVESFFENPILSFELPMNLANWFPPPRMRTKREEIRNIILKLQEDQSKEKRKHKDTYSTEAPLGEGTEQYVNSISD
It counts as functional.

The target in the next test is T4, Caspase-3 (Homo sapiens, UniProt P42574).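 Further: Dose-response selectivity test against caspase-3 for candidate inhibitors of sentrin-specific proteases (SENPs).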
T4 sequence (P42574 whole entry): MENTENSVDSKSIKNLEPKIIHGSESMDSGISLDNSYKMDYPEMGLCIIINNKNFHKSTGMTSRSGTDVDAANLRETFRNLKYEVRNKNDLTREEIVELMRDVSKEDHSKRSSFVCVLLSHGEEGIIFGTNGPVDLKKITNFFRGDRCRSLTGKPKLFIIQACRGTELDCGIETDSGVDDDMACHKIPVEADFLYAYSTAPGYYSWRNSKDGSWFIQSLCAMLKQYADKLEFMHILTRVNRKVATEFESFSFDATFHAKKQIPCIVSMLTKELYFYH
The class given is functional.

Test [5] has as its target T5, Sentrin-specific protease 7 (Homo sapiens, UniProt Q9BQF6).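 Further: Luminescence-based dose-response confirmation of ultra-high-throughput screening hits, measuring inhibition of SENP7.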
T5 sequence (Q9BQF6 whole entry): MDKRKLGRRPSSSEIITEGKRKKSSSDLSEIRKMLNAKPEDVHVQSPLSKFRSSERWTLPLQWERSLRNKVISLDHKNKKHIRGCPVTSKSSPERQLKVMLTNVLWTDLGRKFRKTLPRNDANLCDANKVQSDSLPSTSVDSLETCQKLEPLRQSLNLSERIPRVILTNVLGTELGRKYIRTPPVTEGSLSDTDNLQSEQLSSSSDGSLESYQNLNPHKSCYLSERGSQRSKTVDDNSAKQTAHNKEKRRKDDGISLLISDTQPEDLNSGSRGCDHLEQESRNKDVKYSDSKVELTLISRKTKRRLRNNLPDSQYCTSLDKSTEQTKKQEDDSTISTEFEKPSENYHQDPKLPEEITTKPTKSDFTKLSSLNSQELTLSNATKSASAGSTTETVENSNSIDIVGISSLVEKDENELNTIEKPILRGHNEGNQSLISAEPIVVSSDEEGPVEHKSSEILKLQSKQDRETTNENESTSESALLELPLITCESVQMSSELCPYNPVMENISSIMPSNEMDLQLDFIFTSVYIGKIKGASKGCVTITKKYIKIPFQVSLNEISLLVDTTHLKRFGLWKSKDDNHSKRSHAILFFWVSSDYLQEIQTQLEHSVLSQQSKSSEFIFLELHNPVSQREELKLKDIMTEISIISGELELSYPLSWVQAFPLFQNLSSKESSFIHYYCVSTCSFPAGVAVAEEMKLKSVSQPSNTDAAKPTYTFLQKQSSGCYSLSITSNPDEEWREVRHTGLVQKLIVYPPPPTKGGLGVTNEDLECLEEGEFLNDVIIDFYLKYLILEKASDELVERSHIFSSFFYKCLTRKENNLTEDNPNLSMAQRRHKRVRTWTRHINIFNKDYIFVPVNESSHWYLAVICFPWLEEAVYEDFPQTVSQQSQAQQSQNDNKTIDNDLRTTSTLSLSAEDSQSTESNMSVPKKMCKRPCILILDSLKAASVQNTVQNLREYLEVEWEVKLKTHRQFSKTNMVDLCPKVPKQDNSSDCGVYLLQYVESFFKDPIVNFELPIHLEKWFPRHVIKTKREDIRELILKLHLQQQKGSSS
The class given is functional.

For another test, the system named is INS1. Kind of test: INS-1E survival protection against cytokine death – cell-based, luminescence, retest, dose response (AID 449756).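 Further: cell death triggered by IL-1 beta plus TNF-alpha plus IFN-gamma mixture; protective hits raise ATP signal compared with cytokine alone wells.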 The class given is functional. Conditions: Rattus norvegicus.
For a further test, the system named is Vero. The test can be described thus: cells. Conditions: Chlorocebus sabaeus. It counts as functional.
The nature of test [6]: viability of uninfected HEp-2 cells – cell-based, HTS, cytotoxicity control for RSV inhibitor project, dose response (AID 2410). As to conditions: human respiratory syncytial virus. It counts as functional.
Test [7] concerns the target T6, Short transient receptor potential channel 4 (Mus musculus, UniProt Q9QUQ5).
T6 sequence (Q9QUQ5 whole entry): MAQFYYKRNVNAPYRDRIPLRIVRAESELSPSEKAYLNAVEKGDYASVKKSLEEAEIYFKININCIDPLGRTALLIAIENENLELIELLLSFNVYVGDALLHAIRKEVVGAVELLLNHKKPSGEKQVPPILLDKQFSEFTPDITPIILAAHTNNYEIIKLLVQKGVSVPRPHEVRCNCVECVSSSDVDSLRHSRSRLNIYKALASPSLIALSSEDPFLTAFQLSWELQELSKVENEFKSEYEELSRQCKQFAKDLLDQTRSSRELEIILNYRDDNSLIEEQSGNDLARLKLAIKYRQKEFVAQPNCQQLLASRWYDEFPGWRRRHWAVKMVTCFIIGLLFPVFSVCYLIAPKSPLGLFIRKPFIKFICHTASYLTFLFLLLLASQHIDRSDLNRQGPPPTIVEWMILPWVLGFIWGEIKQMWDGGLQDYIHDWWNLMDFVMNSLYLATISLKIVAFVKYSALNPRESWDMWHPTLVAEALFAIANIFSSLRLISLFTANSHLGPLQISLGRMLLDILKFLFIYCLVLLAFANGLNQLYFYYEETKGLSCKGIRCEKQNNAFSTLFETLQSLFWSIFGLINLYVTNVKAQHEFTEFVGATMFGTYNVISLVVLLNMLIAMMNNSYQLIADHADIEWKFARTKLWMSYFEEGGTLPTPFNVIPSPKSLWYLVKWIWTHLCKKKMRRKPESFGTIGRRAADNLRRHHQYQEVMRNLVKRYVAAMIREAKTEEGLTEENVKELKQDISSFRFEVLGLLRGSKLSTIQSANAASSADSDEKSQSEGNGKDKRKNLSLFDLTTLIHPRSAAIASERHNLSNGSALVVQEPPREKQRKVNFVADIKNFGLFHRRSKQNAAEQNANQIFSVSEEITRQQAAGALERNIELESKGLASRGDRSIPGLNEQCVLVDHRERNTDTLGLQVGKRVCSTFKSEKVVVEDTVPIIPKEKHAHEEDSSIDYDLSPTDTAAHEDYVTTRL
The test can be described thus: calcium entry via TRPC4 opening agents – cell-based, HEK293 TRPC4/mu-opioid, Fluo-4 calcium, dose response (AID 434937). It counts as functional.

Test [8] deals with Induced myeloid leukemia cell differentiation protein Mcl-1 (Homo sapiens, UniProt Q07820). It counts as functional.
Induced myeloid leukemia cell differentiation protein Mcl-1, sequence (Q07820 whole entry): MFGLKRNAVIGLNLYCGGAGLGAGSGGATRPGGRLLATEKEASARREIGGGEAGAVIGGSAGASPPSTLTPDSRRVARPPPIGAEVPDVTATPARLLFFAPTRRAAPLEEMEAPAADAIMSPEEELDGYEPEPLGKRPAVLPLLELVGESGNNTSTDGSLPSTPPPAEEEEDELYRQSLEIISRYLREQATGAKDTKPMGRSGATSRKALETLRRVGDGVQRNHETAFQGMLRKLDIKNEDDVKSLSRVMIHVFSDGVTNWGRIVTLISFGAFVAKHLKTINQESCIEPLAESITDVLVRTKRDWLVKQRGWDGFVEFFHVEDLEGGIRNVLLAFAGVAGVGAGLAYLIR

For the compound `Cn1c2ccccc2c(=O)c2c(=O)n(C3CCCCCC3)c(C3CCCCC3)nc21`, the EC50 in test [1] was 4.04 µM (active).
For orientation: IC50 means the concentration that inhibits the measured activity by half. In the case of `CCN1CCN(C2=C(Cl)C(=O)N(c3ccc(C(F)(F)F)cc3)C2=O)CC1`, the half-inhibitory concentration (IC50) in test [2] is > 50 µM (inconclusive).
Regarding `COc1ccc(NC(=O)c2csc3c2CCCC3)cc1`, the IC50 is > 100 µM (inactive) in test [3], > 100 µM (inactive) in test [4], 19.2 µM (active) on Caspase-3 and 7.25 µM (active) in [5].
A word on the AC50: it is the concentration at which the activity in the assay is half-maximal. In the case of `O=C(Nc1ccc(-c2noc(-c3cccs3)n2)cc1)c1cccnc1`, in the test on INS1, the AC50 was 6.36 µM (active). Also, the IC50 in [3] is > 100 µM (inactive); in test [4], 76.2 µM (active); on Caspase-3, 54.8 µM (active); in test [5] it was 7.2 µM (active).
One may read the CC50 as the concentration that lowers cell viability or growth by half. As to `CSc1ccc(/C=C/C(=O)c2ccc(O)cc2)cc1`, the IC50 in test [3] was 13.4 µM (active); in test [4] it was 9.4 µM (active); at Caspase-3, 19.9 µM (active); in test [5], 4.77 µM (active). Besides, the CC50 with Vero is 23.8 µM (active).
On to `C=CCn1c2ccccc2c(=O)c2cc(C#Cc3ccccn3)ccc21`, for which, in test [6], the cytotoxic concentration (CC50) was 25.1 µM (active). The 50% inhibitory concentration (IC50) in [3] was 20.8 µM (active); in test [4] it was 14.1 µM (active); on Caspase-3, 17.5 µM (active); in test [5], 5.93 µM (active).
For the compound `CCO/C=C1\C(=O)N(c2ccccc2)C(=O)c2ccccc21`, the IC50 is 50.7 µM (active) in test [3], 16.6 µM (active) in [4], 6.63 µM (active) at Caspase-3 and 36.9 µM (active) in test [5].
Consider `COc1cc(OC)cc(C(=O)N[C@H](C(=O)OCC(=O)NC(C)c2ccccc2)C(C)C)c1` (stereo partly drawn), for which the EC50 in [7] was 6.68 µM (active); in test [1], 16.4 µM (active).
On to `O=c1c2ccccc2nc(-c2ccco2)n1-c1cccnc1`, for which the IC50 in [8] is < 0.4 µM (not active).
